Drawing on ChEMBL document CHEMBL1147252, “New bromotyrosine derivatives from an association of two sponges, Jaspis wondoensis and Poecillastra wondoensis” (2003), this text covers EC50 and MIC for 8 compounds.

In brackets after ≈: the same amount, converted by molar mass. Where only a bound is given, the exact number is not on record here.

Assay type in all cases: functional
One assay relates to SK-OV-3. Nature of the assay: Cytotoxicity against human SKOV3 cells. The note with it: read-out: ED50 (the source's name).
For the next assay, the system named is SK-MEL-2. Nature of the assay: Cytotoxicity against human SK-MEL-2 cells. Particulars: read-out: ED50 (the source's name).
The subject of another assay is HCT-15. Nature of the assay: Cytotoxicity against human HCT15 cells. Particulars: read-out: ED50 (the source's name).
The next assay deals with A549. Nature of the assay: Cytotoxicity against human A549 cells. Particulars: read-out: ED50 (the source's name).
For another assay, the system named is XF498. Nature of the assay: Cytotoxicity against human XF498 cells. Particulars: read-out: ED50 (the source's name).
Assay [1] has as its system Staphylococcus aureus. Nature of the assay: Antibacterial activity against methicillin-resistant Staphylococcus aureus Y-80-12-844 after 18 hrs.
The subject of assay [2] is Staphylococcus epidermidis. Nature of the assay: Antibacterial activity against ofloxacin-resistant Staphylococcus epidermidis 178 after 18 hrs.
Assay [3] concerns Staphylococcus aureus. Nature of the assay: Antibacterial activity against methicillin-resistant Staphylococcus aureus Y-80-12-1109 after 18 hrs.
Assay [4] relates to Staphylococcus aureus. Nature of the assay: Antibacterial activity against methicillin-resistant Staphylococcus aureus KIST2 after 18 hrs.
The subject of assay [5] is Staphylococcus aureus. Nature of the assay: Antibacterial activity against methicillin-resistant Staphylococcus aureus KIST3 after 18 hrs.
In assay [6] the test system is Staphylococcus aureus. Nature of the assay: Antibacterial activity against methicillin-resistant Staphylococcus aureus Y-80-12-1999 after 18 hrs.
Assay [7] concerns Staphylococcus aureus. Nature of the assay: Antibacterial activity against methicillin-resistant Staphylococcus aureus KIST1 after 18 hrs.
Assay [8] concerns Staphylococcus aureus. Nature of the assay: Antibacterial activity against methicillin-resistant Staphylococcus aureus 004 after 18 hrs.
The test system of assay [9] is Staphylococcus aureus. Nature of the assay: Antibacterial activity against methicillin-resistant Staphylococcus aureus 003 after 18 hrs.
Assay [10] relates to Staphylococcus epidermidis. Nature of the assay: Antibacterial activity against ofloxacin-resistant Staphylococcus epidermidis 291 after 18 hrs.
The subject of assay [11] is Staphylococcus aureus. Nature of the assay: Antibacterial activity against methicillin-resistant Staphylococcus aureus KIST4 after 18 hrs.

With `O=C(NCCSSCCNC(=O)/C(Cc1ccc(O)c(Br)c1)=N/O)/C(Cc1ccc(O)c(Br)c1)=N/O` [PSAMMAPLIN A], the EC50 in the assay on SK-OV-3 came to 0.14 µg/mL (≈ 0.211 µM); in the assay with SK-MEL-2 it was 0.13 µg/mL (≈ 0.196 µM); with HCT-15, 0.68 µg/mL (≈ 1.02 µM); in the assay with A549 it was 0.57 µg/mL (≈ 0.858 µM); with XF498 it was 0.57 µg/mL (≈ 0.858 µM).

As for `C[C@@H](O)[C@H]1C(=O)N2C(C(=O)O)=C(S[C@@H]3CN[C@H](C(=O)N(C)C)C3)[C@H](C)[C@H]12` [MEROPENEM], the MIC (as a rule, the lowest concentration that inhibits growth of the organism) stood at 50 µg/mL (≈ 130 µM) with Staphylococcus aureus [1]; 0.8 µg/mL (≈ 2.09 µM) in assay [2]; 50 µg/mL (≈ 130 µM) in the assay with Staphylococcus aureus [3]; 3.1 µg/mL (≈ 8.08 µM) in the assay with Staphylococcus aureus [4]; 50 µg/mL (≈ 130 µM) against Staphylococcus aureus [5]; 50 µg/mL (≈ 130 µM) with Staphylococcus aureus [6]. Also, the MIC in the assay with Staphylococcus aureus [7] came to 25 µg/mL (≈ 65.2 µM); in the assay with Staphylococcus aureus [8] it was 3.1 µg/mL (≈ 8.08 µM); against Staphylococcus aureus [9], 3.1 µg/mL (≈ 8.08 µM); in assay [10], 1.6 µg/mL (≈ 4.17 µM); in the assay on Staphylococcus aureus [11], 50 µg/mL (≈ 130 µM).

With `O=C(NCCSSSCCNC(=O)/C(Cc1ccc(O)c(Br)c1)=N/O)/C(Cc1ccc(O)c(Br)c1)=N/O`, the MIC was 25 µg/mL (≈ 35.9 µM) in the assay with Staphylococcus aureus [1]; 0.8 µg/mL (≈ 1.15 µM) in [2]; 6.3 µg/mL (≈ 9.05 µM) against Staphylococcus aureus [3]; 3.1 µg/mL (≈ 4.45 µM) with Staphylococcus aureus [4]; 6.3 µg/mL (≈ 9.05 µM) in the assay on Staphylococcus aureus [5]; 6.3 µg/mL (≈ 9.05 µM) against Staphylococcus aureus [6]. The MIC amounted to 3.1 µg/mL (≈ 4.45 µM) against Staphylococcus aureus [7]; 3.1 µg/mL (≈ 4.45 µM) against Staphylococcus aureus [8]; 3.1 µg/mL (≈ 4.45 µM) in the assay on Staphylococcus aureus [9]; 0.8 µg/mL (≈ 1.15 µM) in [10]; 3.1 µg/mL (≈ 4.45 µM) in the assay on Staphylococcus aureus [11].

As to `COC(=O)NCCSSCCNC(=O)/C(Cc1ccc(O)c(Br)c1)=N/O` [PSAMMAPLIN D], the MIC (against Staphylococcus aureus [1]; in [2]; against Staphylococcus aureus [3]; against Staphylococcus aureus [4]; in the assay on Staphylococcus aureus [5]; against Staphylococcus aureus [6]) was greater than 25 µg/mL in each case. In addition, the MIC (against Staphylococcus aureus [7]; in the assay on Staphylococcus aureus [8]; in the assay on Staphylococcus aureus [9]; in [10]; against Staphylococcus aureus [11]) was greater than 25 µg/mL each time. Besides, the EC50 is 0.17 µg/mL (≈ 0.365 µM) with SK-OV-3; 0.2 µg/mL (≈ 0.429 µM) with SK-MEL-2; 1.23 µg/mL (≈ 2.64 µM) with HCT-15; 0.8 µg/mL (≈ 1.72 µM) in the assay with A549; 0.6 µg/mL (≈ 1.29 µM) in the assay with XF498.

Consider `O=C(NCCSSCCNC(=O)/C(Cc1cc(Br)c(O)c(Br)c1)=N/O)/C(Cc1ccc(O)c(Br)c1)=N/O`, for which the MIC in the assay with Staphylococcus aureus [1] came to 25 µg/mL (≈ 33.6 µM); in [2], 3.2 µg/mL (≈ 4.31 µM); in the assay with Staphylococcus aureus [3], 12.5 µg/mL (≈ 16.8 µM); with Staphylococcus aureus [4], 12.5 µg/mL (≈ 16.8 µM); against Staphylococcus aureus [5], 12.5 µg/mL (≈ 16.8 µM); in the assay on Staphylococcus aureus [6], 12.5 µg/mL (≈ 16.8 µM). The minimal inhibitory concentration (MIC) is 12.5 µg/mL (≈ 16.8 µM) in the assay with Staphylococcus aureus [7]; 12.5 µg/mL (≈ 16.8 µM) against Staphylococcus aureus [8]; 12.5 µg/mL (≈ 16.8 µM) in the assay with Staphylococcus aureus [9]; 3.2 µg/mL (≈ 4.31 µM) in assay [10]; 12.5 µg/mL (≈ 16.8 µM) against Staphylococcus aureus [11]. Moreover, the EC50 with SK-OV-3 worked out at 1.38 µg/mL (≈ 1.86 µM); in the assay with SK-MEL-2 it was 0.9 µg/mL (≈ 1.21 µM); in the assay with HCT-15, 3.31 µg/mL (≈ 4.45 µM); with A549 it was 1.34 µg/mL (≈ 1.8 µM); with XF498 it was 0.92 µg/mL (≈ 1.24 µM).

With `O=C(NCCSSCCNC(=O)/C(Cc1cc(Br)c(O)c(-c2cc(C/C(=N\O)C(=O)NCCSSCCNC(=O)/C(Cc3ccc(O)c(Br)c3)=N/O)cc(Br)c2O)c1)=N/O)/C(Cc1ccc(O)c(Br)c1)=N/O` [BISAPRASIN], the MIC with Staphylococcus aureus [1] was 25 µg/mL (≈ 18.8 µM); in assay [2], 6.3 µg/mL (≈ 4.75 µM); in the assay with Staphylococcus aureus [3] it was 50 µg/mL (≈ 37.7 µM); in the assay with Staphylococcus aureus [4] it was 6.3 µg/mL (≈ 4.75 µM); in the assay on Staphylococcus aureus [5] it was 6.3 µg/mL (≈ 4.75 µM); with Staphylococcus aureus [6], 50 µg/mL (≈ 37.7 µM). Besides, the MIC with Staphylococcus aureus [7] amounted to 12.5 µg/mL (≈ 9.42 µM); in the assay on Staphylococcus aureus [8], 6.3 µg/mL (≈ 4.75 µM); against Staphylococcus aureus [9], 12.5 µg/mL (≈ 9.42 µM); in assay [10], 12.5 µg/mL (≈ 9.42 µM); with Staphylococcus aureus [11], 6.3 µg/mL (≈ 4.75 µM). Also, the EC50 in the assay with SK-OV-3 stood at 2.78 µg/mL (≈ 2.1 µM); in the assay with SK-MEL-2, 2.94 µg/mL (≈ 2.22 µM); with HCT-15 it was 6 µg/mL (≈ 4.52 µM); in the assay with A549, 3.4 µg/mL (≈ 2.56 µM); with XF498 it was 2.44 µg/mL (≈ 1.84 µM).

On to `COc1cccc2c1C(=O)c1c(O)c3c(c(O)c1C2=O)C[C@@](O)(C(=O)CO)C[C@@H]3O[C@H]1C[C@H](N)[C@H](O)[C@H](C)O1` [DOXORUBICIN], for which the EC50 with SK-OV-3 stood at 0.15 µg/mL (≈ 0.276 µM); in the assay on SK-MEL-2, 0.03 µg/mL (≈ 0.0552 µM); with HCT-15 it was 0.09 µg/mL (≈ 0.166 µM); in the assay with A549, 0.04 µg/mL (≈ 0.0736 µM); in the assay with XF498 it was 0.1 µg/mL (≈ 0.184 µM).

Turning to `O=C(NCCSSCCNC(=O)/C(Cc1ccc(Oc2cc(C/C(=N\O)C(=O)NCCSSCCNC(=O)/C(Cc3ccc(O)c(Br)c3)=N/O)cc(Br)c2O)c(Br)c1)=N/O)/C(Cc1ccc(O)c(Br)c1)=N/O` [BISPSAMMAPLIN A], the MIC (against Staphylococcus aureus [1]; in [2]; against Staphylococcus aureus [3]; with Staphylococcus aureus [4]; in the assay on Staphylococcus aureus [5]; against Staphylococcus aureus [6]) was greater than 50 µg/mL in each case. Also, the MIC (with Staphylococcus aureus [7]; against Staphylococcus aureus [8]; with Staphylococcus aureus [9]; in assay [10]; against Staphylococcus aureus [11]) was greater than 50 µg/mL throughout. In addition, the EC50 in the assay with SK-OV-3 stood at 1.52 µg/mL (≈ 1.15 µM); in the assay on SK-MEL-2, 1.02 µg/mL (≈ 0.769 µM); in the assay with HCT-15 it was 3.35 µg/mL (≈ 2.52 µM); in the assay on A549, 1.53 µg/mL (≈ 1.15 µM); in the assay with XF498, 1.1 µg/mL (≈ 0.829 µM).
